The values that follow come from patent publication US8754032B2, “Concomitant pharmaceutical agents and use thereof” (Mitsubishi Tanabe Pharma Corporation, priority 2005, dated 2014).

Read-outs that look alike come from different tables or passages of the source.

Assay [1] has as its system Zucker Fatty (ZF) rats. The assay can be described thus: Oral carbohydrate loading test of Zucker Fatty rats: compound 3, voglibose and combination (plasma glucose and insulin). The assay is classed as in vivo, rat. The source says:
Four groups each containing 5 rats were formed. […] [table]

The subject of assay [2] is ZF rats.

As for `Cc1cc(N2CCN([C@@H]3CN[C@H](C(=O)N4CCSC4)C3)CC2)n(-c2ccccc2)n1` [compound 3, 3-{(2S,4S)-4-[4-(3-methyl-1-phenyl-1H-pyrazol-5-yl)piperazin-1-yl]pyrrolidin-2-ylcarbonyl}thiazolidine], the “suppression of increase in plasma glucose after oral carbohydrate loading, as compared to the vehicle group” value (“suppression of increase” below) was determined as 33% in assay [1] (rat, in vivo) and 33% in assay [2] (rat, in vivo). The “increase of plasma insulin concentration as compared to the vehicle group” value in assay [1] (rat, in vivo, po, 0.1 mg/kg) was “about 3 fold”.

`OCC(CO)N[C@H]1C[C@](O)(CO)[C@@H](O)[C@H](O)[C@H]1O` [voglibose, reference compound]: in assay [1] (male ZF rats, overnight fasted, compound 3 0.1 mg/kg and/or voglibose 0.1 mg/kg given 15 min before mixed carbohydrates 3.5 g/kg orally, area value over 60 min), the “suppression of increase” value was 34%.

Consider `CN(C)C(=N)N=C(N)N` [metformin, reference compound], for which, in assay [2] (male ZF rats, overnight fasted, compound 3 0.3 mg/kg and/or metformin 50 mg/kg given 15 min before mixed carbohydrates 3.5 g/kg orally, area value over 120 min), the “suppression of increase” value is 13%.
